# Assay results from patent US6977269B1, “Method of improving animal tissue quality” (Pioneer Hi-Bred International, Inc, priority 2001, dated 2005).
# Read-outs that look alike come from different tables or passages of the source. Marks after values point to notes of the source that are not given here.
# Columns and labels:
# pigs [1] = assay: Pork loin pH in swine feeding trial; assay type: in vivo
# Method: (§1) Applicants assessed the effects of gamma-tocopherol supplementation on meat quality in an experiment in which pork from pigs fed one of three dietary concentrations of gamma-tocopherol was compared to pork from pigs fed either no supplemental tocopherol in excess of amounts needed to support growth and development, or one of three dietary concentrations of alpha-tocopherol.
# (§2) Young pigs were fed a diet containing 15 IU/kg feed (=15 mg/kg feed=[…]) vitamin E (in the form of alpha-tocopherol acetate) up to 120 pounds. Upon reaching 120 pounds, the pigs were randomly assigned to treatments using weight as a blocking factor. Sixteen pigs were allocated to the control diet, while thirteen pigs were allocated to each test diet. Treatments consisted of typical corn-soybean meal based diets with three levels of dietary tocopherol: (1) Control diet (15 mg/kg feed alpha-tocopherol acetate); (2) diets supplemented with 150, 300 or 450 mg/kg feed alpha-tocopherol acetate; and (3) diets supplemented with 150, 300 or 450 mg/kg feed gamma-tocopherol. Diets were formulated to provide adequate levels of all nutrients and fed in four phases.
# (§3) The levels of alpha-tocopherol supplementation chosen were those previously shown to improve meat quality and the pigs consuming these diets were used as positive controls. Pigs consuming diets without additional supplementation of alpha or gamma-tocopherol were used as negative controls. Pork quality was assessed using standard methods, including pH, Japanese color score, oxidative stability, retail display appearance and Minolta color values.
# (§4) The trial was terminated when the average weight of a treatment replicate reached 260 pounds (minimum of 60 days). Standard carcass data (hot carcass weight, backfat, loin depth and lean) were collected. In addition to the standard carcass data collected at the slaughter plant, color, pH, marbling, firmness and Hunter Lab data were collected. Loin and ham samples were also collected for determination of gamma-tocopherol concentration.
# (§5) Determination of pH was made on days 0 and 5 as an indication of pork spoilage. Oxidative rancidity was measured using 2-Thiobarbituric acid to determine TBA number. Final values were expressed as mg malonaldehyde per 1000 grams of meat. Purge was determined on the vacuum-packaged pork loins.
# (§6) Data were analyzed using the GLM procedure of SAS. Due to a limited number of observations from the 150 IU alpha-tocopherol treatment, no estimates of carcass or loin quality measures are presented for that treatment. Data collected over a period of days were also analyzed as a splitplot. Contrasts were made between the Control and added tocopherol diets, Control and alpha-tocopherol, Control and gamma-tocopherol, and alpha- versus gamma-tocopherol.
# pigs [2] = assay: Japanese color score of pork loin in swine feeding trial; assay type: in vivo
# Method: as §1, §2, §3, §4, §6
# pigs [3] = assay: Oxidative rancidity of pork chops (2-thiobarbituric acid, TBA number); assay type: in vivo
# Method: as §2
# (§7) Pork chops (2.5 cm) were cut from vacuum-packaged pork loins that had been stored for 21 days at 1 degree C. Freshly cut chops were placed on styrofoam trays with DriLoc (V 50 pads) and overwrapped with PVC (23,250 cc/m 2 /24 hours oxygen permeability). Pork chops were placed in simulated retail display at 2±3 degrees C. for six days. Product temperature was monitored during the display period. Chops were analyzed for lightness (L*), redness (a*), and yellowness (b*) using Illuminant C or D65 on a Minolta Chroma Meter. Three readings per chop were taken on display days 0, 1, 2, 3, 4 and 5.
# as §5, §6
# pigs [4] = assay: Visual panel appearance score of pork loin chops in simulated retail display; assay type: in vivo
# Method: as §2, §7
# Loin chop color was evaluated using a trained visual panel of 10 people. Color score was determined using a five-point scale with a score of one (1) representing a very bright pinkish gray and a score of five (5) representing a dull dark red to brown color representative of color deterioration.
# as §6
# pigs [5] = assay: Minolta Chroma Meter L*, a*, b* of pork chops in simulated retail display; assay type: in vivo
# Method: as §2, §7, §6
# pigs [6] = assay type: in vivo, swine
# Excerpt: The data was derived from the same swine tests as in Example 1. Data from 43 samples was ranked in descending order for four parameters: alpha-tocopherol concentration, gamma-tocopherol concentration, alpha plus gamma-tocopherol concentration, and ratio of alpha-tocopherol to gamma-tocopherol. The data was divided into four quartiles, averaged, and compared to the corresponding quartile loin pH average.
# lambs [7] = assay: Lamb carcass characteristics; assay type: in vivo; details: for Bone maturity: A0 = 1.0 ... A90 = 1.9; for Leg score: high Prime = 15 ... low Choice = 10; for Adjusted fat / Body wall thickness / Dressing percentage / Quality grade / Rib eye area / Yield grade: in vivo; for Hot carcass weight: lambs, 500 IU/kg/day for 45 days; for Flank streaking: trace = 1, slight = 2, small = 3
# Excerpt: Interim and final weights were taken on two consecutive days after 20 and 43 days on test, respectively, to calculate average daily weight gain (ADG) and feed conversion. On the 45th day on test, the lambs were transported to a commercial packing plant and slaughtered the following morning. Standard carcass data were collected.
# Characteristics included hot carcass weight, adjusted fat, rib eye area, and body wall thickness. As indicated in the last two columns under Contrasts (P values), there were no statistically significant differences (P<0.05) in carcass measurements between the alpha and gamma groups or between the control group and the alpha and gamma groups.
# lambs [8] = assay: Lamb loin chop coloration in retail display (Hunter values, trained panel); assay type: in vivo; details: for Hunter L / Hunter a / Hunter b: lamb loin chops, retail case display; for Discoloration: lean discoloration; for Discoloration / Brown color intensity: trained panel
# Method: Following carcass fabrication, one boneless leg and the double loin were collected from each carcass, vacuum-packaged, transported and stored under refrigeration (2 to 4° C.) for seven days. […] chops were fabricated from the semimembranosus muscle from each leg following storage. Leg and double-loin chops were wrapped in oxygen permeable fresh meat PVC film. […] The leg chops and second portion of double loin chops were stored in a walk-in cooler.
# After seven days in storage, the leg and loin were placed in a display case for nine days to simulate retail meat counter display conditions. Both sides of the double loin chops were evaluated on days 1, 3, 5 and 9 of retail case display for percent lean discoloration and intensity of brownness by a seven-member trained panel and also by a Spectroguard Computer Color Control System. Left and right observation values were averaged.
# [9] = in vivo; cited from earlier work
# [10] = pork loin, all supplemented levels pooled
# [11] = dietary level 300 IU, listed as gamma-tocopherol
# [12] = pork, all supplemented levels pooled
# [13] = five-point scale, all supplemented levels pooled
structure (smiles),measurement,setting,value
"Cc1c(O)cc2c(c1C)O[C@](C)(CCC[C@H](C)CCC[C@H](C)CCCC(C)C)CC2 [Gamma-tocopherol, gamma-tocopherol]",PH,pigs [1]; all supplemented levels pooled,6.11
same,PH,pigs [1]; dietary level 150 IU,5.99^ab
same,PH,pigs [1]; dietary level 300 IU,6.28^a
same,PH,pigs [1]; dietary level 450 IU,5.94^b
same,Japanese Color Score,pigs [2]; dietary level 150 IU,3.18^ab
same,Japanese Color Score,pigs [2]; dietary level 300 IU,4.32^a
same,Japanese Color Score,pigs [2]; dietary level 450 IU,3.56^ab
same,Japanese Color Score,pigs [2]; [10],3.94
same,Oxidative stability (5 day storage TBA),pigs [3]; dietary level 150 IU,.177 mg malonaldehyde per 1000 grams of meat
same,Oxidative stability (5 day storage TBA),pigs [3]; dietary level 300 IU,.080 mg malonaldehyde per 1000 grams of meat
same,Oxidative stability (5 day storage TBA),pigs [3]; [11],0.080 mg malonaldehyde per 1000 gram
same,Oxidative stability (5 day storage TBA),pigs [3]; dietary level 450 IU,.125 mg malonaldehyde per 1000 grams of meat
same,Oxidative stability (5 day storage TBA),pigs [3]; [12],.102 mg malonaldehyde per 1000 grams of meat
same,Appearance score (after 5 day retail display),pigs [4]; dietary level 150 IU,4.05
same,Appearance score (after 5 day retail display),pigs [4]; dietary level 300 IU,4.06
same,Appearance score (after 5 day retail display),pigs [4]; dietary level 450 IU,3.72
same,Appearance score (after 5 day retail display),pigs [4]; [13],3.89
same,Minolta L* values (after 5 day retail display),pigs [5]; all supplemented levels pooled,41.4
same,Minolta a* values (after 5 day retail display),pigs [5]; all supplemented levels pooled,8.13
same,Minolta b* values (after 5 day retail display),pigs [5]; all supplemented levels pooled,4.48
same,Minolta L* values (after 5 day retail display),pigs [5]; dietary level 150 IU,42.4^bc
same,Minolta a* values (after 5 day retail display),pigs [5]; dietary level 150 IU,7.57^ab
same,Minolta b* values (after 5 day retail display),pigs [5]; dietary level 150 IU,5.13^bc
same,Minolta L* values (after 5 day retail display),pigs [5]; dietary level 300 IU,39.7^c
same,Minolta a* values (after 5 day retail display),pigs [5]; dietary level 300 IU,8.20^a
same,Minolta b* values (after 5 day retail display),pigs [5]; dietary level 300 IU,3.85^c
same,Minolta a* values (after 5 day retail display),pigs [5]; [11],8.40
same,Minolta L* values (after 5 day retail display),pigs [5]; dietary level 450 IU,43.0^b
same,Minolta a* values (after 5 day retail display),pigs [5]; dietary level 450 IU,8.05^a
same,Minolta b* values (after 5 day retail display),pigs [5]; dietary level 450 IU,5.12^bc
same,Corresponding quartile loin pH average,pigs [6]; 1st Q of the ranked parameter,6.03
same,Corresponding quartile loin pH average,pigs [6]; 2nd Q of the ranked parameter,5.95
same,Corresponding quartile loin pH average,pigs [6]; 3rd Q of the ranked parameter,5.77
same,Corresponding quartile loin pH average,pigs [6]; 4th Q of the ranked parameter,5.77
same,Bone maturity,lambs [7],1.62^ab
same,Leg score,lambs [7],10.8
same,Adjusted fat,lambs [7],0.47 cm
same,Body wall thickness,lambs [7],1.92 cm
same,Dressing percentage,lambs [7],46.8
same,Quality grade,lambs [7],5.23
same,Rib eye area,lambs [7],5.62 sq. cm
same,Yield grade,lambs [7],2.19
same,Hot carcass weight,lambs [7],27.7 kg
same,Flank streaking,lambs [7],2.40^ab
same,Hunter L,lambs [8],38.4^a
same,Hunter a,lambs [8],11.7
same,Hunter b,lambs [8],8.11
same,Discoloration,lambs [8],13.7%
same,Brown color intensity,lambs [8],10.3^ab
same,absorbed in the bloodstream,[9],3–19%
"Cc1c(C)c2c(c(C)c1O)CC[C@@](C)(CCC[C@H](C)CCC[C@H](C)CCCC(C)C)O2 [Alpha-tocopherol, alpha-tocopherol, reference compound]",PH,pigs [1]; all supplemented levels pooled,5.97
same,PH,pigs [1]; dietary level 300 IU,6.08^ab
same,PH,pigs [1]; dietary level 450 IU,5.85^b
same,Japanese Color Score,pigs [2]; dietary level 300 IU,3.56^ab
same,Japanese Color Score,pigs [2]; dietary level 450 IU,3.94^ab
same,Japanese Color Score,pigs [2]; [10],3.75
same,Oxidative stability (5 day storage TBA),pigs [3]; dietary level 300 IU,.134 mg malonaldehyde per 1000 grams of meat
same,Oxidative stability (5 day storage TBA),pigs [3]; dietary level 450 IU,.072 mg malonaldehyde per 1000 grams of meat
same,Oxidative stability (5 day storage TBA),pigs [3]; [12],.103 mg malonaldehyde per 1000 grams of meat
same,Appearance score (after 5 day retail display),pigs [4]; dietary level 300 IU,3.49
same,Appearance score (after 5 day retail display),pigs [4]; dietary level 450 IU,4.09
same,Appearance score (after 5 day retail display),pigs [4]; [13],3.79
same,Minolta L* values (after 5 day retail display),pigs [5]; all supplemented levels pooled,43.6
same,Minolta a* values (after 5 day retail display),pigs [5]; all supplemented levels pooled,7.49
same,Minolta b* values (after 5 day retail display),pigs [5]; all supplemented levels pooled,4.95
same,Minolta L* values (after 5 day retail display),pigs [5]; dietary level 300 IU,45.3^ab
same,Minolta a* values (after 5 day retail display),pigs [5]; dietary level 300 IU,8.40^a
same,Minolta b* values (after 5 day retail display),pigs [5]; dietary level 300 IU,5.93^ab
same,Minolta L* values (after 5 day retail display),pigs [5]; dietary level 450 IU,41.9^bc
same,Minolta a* values (after 5 day retail display),pigs [5]; dietary level 450 IU,6.58^b
same,Minolta b* values (after 5 day retail display),pigs [5]; dietary level 450 IU,3.97^bc
same,Corresponding quartile loin pH average,pigs [6]; 1st Q of the ranked parameter,5.80
same,Corresponding quartile loin pH average,pigs [6]; 2nd Q of the ranked parameter,5.78
same,Corresponding quartile loin pH average,pigs [6]; 3rd Q of the ranked parameter,6.01
same,Corresponding quartile loin pH average,pigs [6]; 4th Q of the ranked parameter,5.93
same,Bone maturity,lambs [7],1.47^b
same,Leg score,lambs [7],10.8
same,Adjusted fat,lambs [7],0.55 cm
same,Body wall thickness,lambs [7],2.13 cm
same,Dressing percentage,lambs [7],48.2
same,Quality grade,lambs [7],5.27
same,Rib eye area,lambs [7],5.63 sq. cm
same,Yield grade,lambs [7],2.42
same,Hot carcass weight,lambs [7],27.4 kg
same,Flank streaking,lambs [7],3.02^a
same,Hunter L,lambs [8],36.3^b
same,Hunter a,lambs [8],11.9
same,Hunter b,lambs [8],7.54
same,Discoloration,lambs [8],12.6%
same,Brown color intensity,lambs [8],8.30^b
same,absorbed in the bloodstream,[9],about 100%
